# Where “and” joins values, the source holds several entries; their conditions need not be identical. Equal values may be shown once. Entries after “also recorded” stand apart in the source; their conditions may differ. Read-outs that look alike come from different tables or passages of the source. Marks after values point to notes of the source that are not given here.
# Tests used:
# [1] = molecular target: T1, α-amylase from porcine pancreas (Sus scrofa, UniProt P00690); assay: Isothermal titration calorimetry, single injection, GalG2CNP conversion; format: biochemical; conditions: 100 µM inhibitor, 0.95 mM substrate, 37 °C
# T1 construct: A saline suspension of α-amylase from porcine pancreas; purchased Sigma Aldrich (Steinheim, Germany) Lot #SLBN9170V (catalogue number not given); host or cells: porcine pancreas (tissue-derived)
# T1 sequence (P00690 16-511): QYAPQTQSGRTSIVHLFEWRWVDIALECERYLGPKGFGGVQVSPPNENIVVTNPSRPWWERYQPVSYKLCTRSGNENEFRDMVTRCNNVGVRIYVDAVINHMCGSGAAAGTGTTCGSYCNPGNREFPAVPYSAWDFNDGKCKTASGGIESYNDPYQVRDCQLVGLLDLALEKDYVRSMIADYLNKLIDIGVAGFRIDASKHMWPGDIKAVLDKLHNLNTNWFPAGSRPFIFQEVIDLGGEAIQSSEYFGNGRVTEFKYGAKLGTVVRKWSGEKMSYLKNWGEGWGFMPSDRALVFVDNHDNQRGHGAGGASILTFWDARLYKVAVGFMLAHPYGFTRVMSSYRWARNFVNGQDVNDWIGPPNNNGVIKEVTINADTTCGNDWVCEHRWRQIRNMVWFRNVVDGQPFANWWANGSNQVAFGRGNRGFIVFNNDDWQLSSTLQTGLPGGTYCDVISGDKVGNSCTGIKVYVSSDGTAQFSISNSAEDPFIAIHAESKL
# Method: To evaluate the inhibitory strength of 100 µM anthocyanin-3-glucosides and black carrot anthocyanins, GalG2CNP conversion to CNP was monitored by the released heat. According to the previous study, ITC measurements were carried out in a single injection experiment set-up on a MICROCALTM PEAQ-ITC calorimeter (S/N MAL1188053, Malvern Panalytical Almelo, Netherlands). Following an equilibration time of 10 min, 1 µL α-amylase (1 µM in 50 mM MES^+ buffer) was added to 0.95 mM of the substrate with or without 100 µM of the phenolic inhibitor in the cell (Vcell = 0.207 mL). The temperature was maintained at 37 °C and the sample was stirred at 750 rpm throughout. The feedback/gain mode was set to high. The resulting heat profile was transformed and the conversion rate was plotted against the substrate concentration [S] by an origin routine template provided by Malvern® for Origin version 7.
# [2] = molecular target: T1, α-amylase from porcine pancreas; assay: α-amylase enzyme activity assay, GalG2CNP conversion, UV/Vis detection of CNP at 405 nm; format: biochemical; conditions: for conversion rate (v0) / inhibitory effect in UV/Vis assay: black carrot anthocyanins, 12.5−50 µM, artifact, simulated accelerated conversion; for Ki: global fit, 12.5, 25, 50 µM, UV/Vis artifact
# Method: The enzyme activity assay, […], was established by Homoki and co-workers and already used by the authors to evaluate the inhibitory strength of different phenolic structures. To enable the evaluation of the result obtained in the present study compared to the non-anthocyanin phenolics investigated previously, the assay conditions were identical. In short, to 12 different GalG2CNP concentrations ([S] = 0−2000 µM) in MES^+ buffer, inhibitor [I] and 50 µL enzyme solution (c = 1.51 units/~100 pM, on the basis of supplier information) were mixed in a microtiter plate (Greiner BioOne, Frickenhausen, Germany; transparent, F-bottom). For blanks, the enzyme solution was substituted with MES^+ buffer. The final volume per well was 250 µL. To quantify the reaction product, a linear calibration with eight different CNP concentrations in the range of 0−35 µM was performed for each plate. Dilutions of the anthocyanin stock solutions (0.1% HCl) were equilibrated at pH 6.1 for one hour. Final inhibitor concentrations were limited due to its strong absorption at 405 nm to 12.5, 25, and 50 µM. For each anthocyanin structure, the assay was conducted on two to three different days with freshly prepared stocks of substrate, enzyme, and inhibitor.
# In addition to the Michaelis Menten constant (Km) and the maximal conversion rate (vmax) values (Table S1), inhibition constants (Kic, Kiu) were calculated by fitting the data by two approaches: (i) According to the mixed inhibition equation (Equation (4)) or competitive inhibition equation (Equation (5)), applying an optimal global fit containing data from all inhibitor concentrations including the control ([I] = 0 µM); and (ii) by an independent fit according to the Michaelis Menten equation (Equation (6)), providing the apparent values Km^app and Vmax^app (Table S2) for each inhibitor concentration, which were then used to calculate the inhibition constants (Equations (7) and (8)). (4) v0= vmax/Km/[S] · (1+[I]/Kic)+(1+[I]/Kiu), (5) v0=vmax/Km/[S] · ( 1+[I]/Kic)+1, (6) v0=vmax · [S]/Km+[S], (7) Kic=vmax^app/Km^app · [I]/vmax/Km−vmax^app/Km^app, (8) Kiu=vmax^app · [I]/vmax− vmax^app.
# The IC50 values of the different anthocyanins were derived from the inhibition constants for different substrate concentrations by the Cheng−Prusoff equation (Equation (9)). (9) IC50=(Km+[S])/Km/Kic+[S]/Kiu.
# • KM: Michaelis Menten constant (µM) • vmax: Maximal conversion rate of the uninhibited reaction (µM/min) • v0: Observed conversion rate at given substrate and inhibitor concentration (µM/min) • [S]: Substrate concentration • [I]: Inhibitor concentration • Kic: Inhibitor constant, reflecting the competitive inhibition in the equation (µM) • Kiu: Inhibitor constant, reflecting the uncompetitive inhibition in the equation (µM) • vmax^app: Calculated maximal conversion rate, when the Michaelis Menten equation is used on an inhibited curve (µM/min) • Km^app: Calculated Michaelis Menten constant, when the Michaelis Menten equation is used on an inhibited curve (µM) • IC50: Half maximal inhibitory concentration (inhibitor concentration needed to achieve 50% inhibition; it is dependent on the substrate concentration) (µM)
# For data analyses and calculations, Origin 2018b (OriginLab, software extension Enzyme Kinetics) was used. The Levenberg−Marquardt algorithm procedure was chosen for iteration. All assays were performed in two independent replicates at different dates. Values are expressed in arithmetic means ± average deviation (AD). The statistical significance and differences between groups were analyzed by one-way analysis of variance (ANOVA), followed by Tukey’s test. Differences were considered significant when p < 0.05. Data were processed using Microsoft Excel® (2010).
# [3] = molecular target: human salivary α-amylase; design: method as in PMID 26471548; conditions: cited from earlier work
# [4] = molecular target: porcine pancreatic α-amylase; design: method as in doi:10.1016/j.jff.2015.11.042; conditions: cited from earlier work
# [5] = molecular target: T1, α-amylase from porcine pancreas; conditions: cited from earlier work; for IC50: read-out: IC50 (Cheng−Prussoff, Equation (9)); for Kmapp / vmaxapp: Michaelis Menten fit
structure (smiles),measurement,setting,value
"OC[C@H]1O[C@@H](Oc2cc3c(O)cc(O)cc3[o+]c2-c2ccc(O)c(O)c2)[C@H](O[C@@H]2OC[C@@H](O)[C@H](O)[C@H]2O)[C@@H](O)[C@H]1O [BC 2, cyanidin-3-xylosyl-galactoside]","inhibitory strength by ITC (thermogram, Michaelis Menten plot)",[1],no significant difference
same,conversion rate (v0) / inhibitory effect in UV/Vis assay,[2],minor inhibitory effect
COc1cc(/C=C/C(=O)OC[C@H]2O[C@@H](OC[C@H]3O[C@@H](Oc4cc5c(O)cc(O)cc5[o+]c4-c4ccc(O)c(O)c4)[C@H](O[C@@H]4OC[C@@H](O)[C@H](O)[C@H]4O)[C@@H](O)[C@H]3O)[C@H](O)[C@@H](O)[C@@H]2O)ccc1O [BC 4],"inhibitory strength by ITC (thermogram, Michaelis Menten plot)",[1],significantly stronger inhibition of BC 4 compared to the non-acylated BC 2 and Cyd-3-glc
same,conversion rate (v0) / inhibitory effect in UV/Vis assay,[2],inhibits best
same,inhibition type,[2]; from fits and Lineweaver−Burk / Hanes plots,complete competitive inhibition; also recorded: predominantly competitive inhibition
same,Ki,"[2]; Competitive Inhibition (Equation (5)), rough estimation, read-out: Kic",~20 µM and 20 µM
same,Ki,"[2]; Mixed Inhibition (Equation (4)), read-out: Kiu",98 ± 139 µM
same,Ki,"[2]; Mixed Inhibition (Equation (4)), rough estimation, read-out: Kic",23 ± 3 µM
C[C@@H]1O[C@@H](OC[C@H]2O[C@@H](Oc3cc4c(O)cc(O)cc4[o+]c3-c3ccc(O)c(O)c3)[C@H](O)[C@@H](O)[C@@H]2O)[C@H](O)[C@H](O)[C@H]1O [Cyd-3-rut],IC50,[3],200 ± 24 µM
same,IC50,[4],31 ± 7 µM
"COc1cc(-c2[o+]c3cc(O)cc(O)c3cc2O[C@@H]2O[C@H](CO)[C@@H](O)[C@H](O)[C@H]2O)cc(OC)c1O [Mlv-glc, malvidin-3-glucoside]",IC50,[3],675 ± 73 µM
same,inhibition type,[3],competitive inhibition type
same,Kic/Kiu,"[5]; (i) global fit, Equation (4)",0.32 ± 0.07 ^a
same,Ki,"[5]; (i) global fit, mixed inhibition Equation (4), read-out: Kic",44 ± 4 µM
same,Ki,"[5]; (i) global fit, mixed inhibition Equation (4), read-out: Kiu",143 ± 44 µM
same,IC50,"[5]; (i) global fit, [S] 10 µM",46 ± 4 µM
same,IC50,"[5]; (i) global fit, [S] 100 µM",58 ± 7 µM
same,IC50,"[5]; (i) global fit, [S] 10^3 µM",106 ± 24 µM
same,IC50,"[5]; (i) global fit, [S] 10^6 µM",143 ± 44 µM
same,Ki,"[5]; (ii) independent Michaelis Menten fit, Equation (7), read-out: Kic",69 ± 17 µM
same,Ki,"[5]; (ii) independent Michaelis Menten fit, Equation (8), read-out: Kiu",147 ± 50 µM
same,Kic/Kiu,"[5]; (ii) independent fit, Equations (7) and (8)",0.58 ± 0.35 ^a
same,IC50,"[5]; (ii) independent fit, [S] 10 µM",71 ± 16 µM
same,IC50,"[5]; (ii) independent fit, [S] 100 µM",83 ± 10 µM
same,IC50,"[5]; (ii) independent fit, [S] 10^3 µM",121 ± 21 µM
same,IC50,"[5]; (ii) independent fit, [S] 10^6 µM",147 ± 50 µM
same,Kmapp,[5]; inhibitor c 25 µM,216 ± 3 µM
same,vmaxapp,[5]; inhibitor c 25 µM,0.67 ± 0.16 µM/min
same,Kmapp,[5]; inhibitor c 50 µM,337 ± 4 µM
same,vmaxapp,[5]; inhibitor c 50 µM,0.60 ± 0.20 µM/min
same,Kmapp,"[5]; inhibitor c 12,5 µM",194 ± 22 µM
same,vmaxapp,"[5]; inhibitor c 12,5 µM",0.74 ± 0.24 µM/min
same,Ki,"[5]; from apparent values, inhibitor c 25 µM, read-out: Kic",74 ± 1 µM
same,Ki,"[5]; from apparent values, inhibitor c 25 µM, read-out: Kiu",150 ± 14 µM
same,Ki,"[5]; from apparent values, inhibitor c 50 µM, read-out: Kic",36 ± 6 µM
same,Ki,"[5]; from apparent values, inhibitor c 50 µM, read-out: Kiu",159 ± 66 µM
same,Ki,"[5]; from apparent values, inhibitor c 12,5 µM, read-out: Kic",139 µM
same,Ki,"[5]; from apparent values, inhibitor c 12,5 µM, read-out: Kiu",84 µM
same,Ki,"[5]; mean over inhibitor c 12,5, 25, 50 µM (Supplementary 2), read-out: Kic mean ± SD",83 ± 52 µM
same,Ki,"[5]; mean over inhibitor c 12,5, 25, 50 µM (Supplementary 2), read-out: Kiu mean ± SD",131 ± 41 µM
same,"inhibitory strength by ITC (thermogram, Michaelis Menten plot)",[1],Mlv-3-glc > Cyd-3-glc > Dpd-3-glc~Peo-3-glc

# — paper PMC7142633, “Impact of B-Ring Substitution and Acylation with Hydroxy Cinnamic Acids on the Inhibition of Porcine α-Amylase by Anthocyanin-3-Glycosides” (Foods, 2020)
